The values below come from paper PMC9014415, “Repositioning of a Diaminothiazole Series Confirmed to Target the Cyclin-Dependent Kinase CRK12 for Use in the Treatment of African Animal Trypanosomiasis” (Journal of Medicinal Chemistry, 2022).

Molecules are shown by their SMILES.

A short description of data set [1]: Mouse hepatocyte stability. Type of data set: in vitro ADME. As to conditions: intrinsic clearance.
The next data set relates to T. b. brucei. Briefly: Acute T. b. brucei efficacy in mice. Type of data set: in vivo, Trypanosoma brucei brucei. As to conditions: 3 mg/kg bid po for 4 days. On the procedure:
(citrate, fumarate and phosphate) (Figure 9). These alternative salt forms of compound 2 were prepared and formulated in the best vehicle determined by injection site tolerability analysis (0.3M sodium acetate buffer, Kolliphor EL, N-methyl pyrrolidone, 2-pyrrolidone, and 11% water suitable for injection). Rat IM pharmacokinetics was then carried out with each salt to determine the salt form to use for efficacy. None of these salt forms offered any improvement in rat IM pharmacokinetic profile over the free base in the tolerated vehicle (Figure S7).
3. In vivo efficacy studies
The T. congolense (IL3000) and T. vivax (ILRAD V34) cell lines7, 8, both originating from Kenya, were used in the following in vivo mouse studies. For studies in cattle, either Trypanosoma congolense (savannah) KONT 2/133, 224) or T. vivax STIB 719 was used.
3.1 Mouse efficacy studies for T. brucei brucei.
Mouse efficacy studies for T. brucei brucei were carried out as previously detailed.9 3.2 NMRI mouse efficacy studies for T. congolense and T. vivax.
Mouse models of infections were carried out using standardized protocols. Briefly, 1 mL samples of cryopreserved T. congolense, or T. vivax-infected blood harvested directly from an infected mouse, were diluted with Hanks Balanced Salt Solution plus 20 mM glucose (HBSS+G) to 5 x 10^4 trypomastigotes/mL (5 x 105 for T. vivax). […]

For data set [2], the system named is bloodstream T. brucei resistant lines R1-R3. The data set is described as follows: Sensitivity of compound 2-resistant T. brucei lines compared to wild-type. It is filed as cell-based, Trypanosoma brucei. The procedure:
To gain further insight into the molecular target(s) of this series, resistance was generated against compound 2 in a drug-sensitive clonal line of bloodstream T. brucei. Trypanosomes were cultured in the continuous presence of compound 2 for a total of 122 days. […] Following drug selection, resistant parasites were cloned by limiting dilution. The relative sensitivities of these cloned cell lines were established and compared to that of wild-type parasites. Resistant lines R1 and R3 were 10-fold resistant, while R2 was 90-fold resistant to compound 2 (Figure 4A). […] In addition, all three clones had lost a significant part of chromosome 10 and gained additional copies of a region of chromosome 8. All three resistant lines carried a mutation in Tb927.4.4590, a gene encoding a non-essential putative kinase and in Tb927.11.10300, encoding a hypothetical protein. Of particular note, all three clones (R1–3) shared a non-synonymous substitution (Gly492Ala) in Tb927.11.12310, the gene encoding CRK12. In addition, R2 harbored a second non-synonymous substitution (Leu482Phe) in CRK12 (Table S10). […]
in cattle). Blood from the donor animals, diluted with phosphate buffered glucose was used to infect recipient animals IV via the jugular vein. Infection was with approximately 100,000 fresh viable parasites. The compounds were given IM. Each injection was up to 10 mL and given in neck in the following order: left anterior third, right anterior third, left posterior third and right posterior third.
Animals over 240 kg required a fifth injection site for the IVP, and this was given in the left or right hind leg. Cattle were randomised to treatments. Parasitaemia was monitored 3 times per calendar week, though collection of blood and assessment of clinical symptoms. Blood samples were also […]
treatment). Cattle were also monitored for PCV, clinical symptoms, body weight and temperature […]
4. Mode of action studies
4.1 Resistant line generation […]
Sequencing reads (100 bp) were aligned to the Trypanosoma brucei TREU927 genome (v39; tritrypDB) using Bowtie210 and Samtools11 software. […]

With `CC(C)CS(=O)(=O)N[C@H]1CC[C@H](Nc2nc(N)c(C(=O)c3c(F)cccc3F)s2)CC1` [Compound 1, N-((trans)-4-((4-Amino-5-(2,6-difluorobenzoyl)thiazol-2-yl)amino)cyclohexyl)-2-methylpropane-1-sulfonamide], the “Mouse Hepatocyte Cli” value in data set [1] was determined as 5.9 mL/min/g. Moreover, in the data set on T. b. brucei, the “Acute T. b. brucei efficacy in mice” value is reported as “Cures 3 mg/kg bid po for 4 days”.
In the case of `CC(C)CS(=O)(=O)N[C@H]1CC[C@H](Nc2nc(N)c(C(=O)c3c(F)cc(CN(C)C)cc3F)s2)CC1` [Compound 2, N-(trans)-[4-[[4-Amino-5-[4-(dimethylaminomethyl)-2,6-difluoro-benzoyl]thiazol-2-yl]amino]cyclohexyl]-2-methyl-propane-1-sulfonamide], the results for the “Resistance compared to wild-type” value in data set [2] (resistant line R1), in data set [2] (resistant line R2) and in data set [2] (resistant line R3) were 10 fold, 90 fold and 10 fold, respectively.
